According to patent US7119073B2, “Peptides and their use as inhibitors of hepatitis C virus ns3 protease” (Istituto Di Ricerche Di Biologia Molecolare P. Angeletti SpA, priority 2001, dated 2006):
Where two headings read alike, the source gives them in different places. Where a SMILES comes first, the peptide text is derived from it. [ ]: non-standard residue; d: D form. The star is where a group is joined. Dip = N[C@H](C(=O)O)C(c1ccccc1)c1ccccc1; Abu(4,4-F2) = N[C@@H](CC(F)F)C(=O)O; Cha = N[C@@H](CC1CCCCC1)C(=O)O; X1 = O=C(O)c1ccc(CCN*)cc1

Legend:
[1] = target: T1, NS3 protease domain complexed to a modified form of the NS4A peptide (Pep4AK) (Hepatitis C virus genotype 1b, UniProt P26663); assay: HCV NS3 protease domain/NS4A cofactor peptide assay (Assay B); format: biochemical
T1 construct: NS3 protease domain (residues 1027–1206 of the HCV polyprotein)
T1 sequence (P26663 1027-1206, other chains not shown): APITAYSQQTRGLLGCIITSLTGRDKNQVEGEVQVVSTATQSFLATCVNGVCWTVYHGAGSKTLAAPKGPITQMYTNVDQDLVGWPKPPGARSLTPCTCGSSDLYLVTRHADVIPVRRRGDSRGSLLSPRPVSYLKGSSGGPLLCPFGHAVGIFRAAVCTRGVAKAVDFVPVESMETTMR

[2] = target: T2, full length NS3 protein noncovalently complexed with the full-length NS4A cofactor protein (NS3/NS4A complex) (Hepatitis C virus genotype 1b, UniProt P26663); assay: Full-length NS3-NS4A heterodimer protein assay (Assay A); format: biochemical, hepatitis C virus (HCV)
T2 construct: full length NS3 protein spanning residues 1027–1657 of the HCV polyprotein
T2 sequence (P26663 1027-1657): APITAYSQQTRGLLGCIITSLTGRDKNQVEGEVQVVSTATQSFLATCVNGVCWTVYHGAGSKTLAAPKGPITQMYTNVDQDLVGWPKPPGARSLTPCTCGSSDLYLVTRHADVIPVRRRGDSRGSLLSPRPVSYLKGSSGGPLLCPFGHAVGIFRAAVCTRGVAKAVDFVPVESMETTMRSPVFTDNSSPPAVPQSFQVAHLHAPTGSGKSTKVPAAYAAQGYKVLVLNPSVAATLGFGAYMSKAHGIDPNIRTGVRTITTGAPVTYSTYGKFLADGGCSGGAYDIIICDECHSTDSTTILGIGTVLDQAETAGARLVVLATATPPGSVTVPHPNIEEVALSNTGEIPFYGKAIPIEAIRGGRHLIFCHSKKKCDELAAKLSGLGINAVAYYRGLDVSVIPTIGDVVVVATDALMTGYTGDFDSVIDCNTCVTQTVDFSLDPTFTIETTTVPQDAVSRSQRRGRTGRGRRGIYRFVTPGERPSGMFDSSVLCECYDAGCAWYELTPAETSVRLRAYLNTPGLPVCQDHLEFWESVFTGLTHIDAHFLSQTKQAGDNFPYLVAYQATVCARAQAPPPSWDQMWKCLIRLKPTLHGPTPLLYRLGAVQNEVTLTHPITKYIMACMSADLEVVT
T2 sequence (P26663 1658-1711): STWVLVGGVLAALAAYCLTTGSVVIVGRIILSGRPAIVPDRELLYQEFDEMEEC
Method: Full-Length NS3-NS4A Heterodimer Protein Assay (Assay A)
(Gallinari, P., Paolini, C., Brennan, D., Nardi, C., Steinkühler, C. and De Francesco, R. Modulation of hepatitis C virus NS3 protease and helicase activities through the interaction with NS4A. Biochemistry 38, 5620–5632, 1999)
In this assay the full length NS3 protein spanning residues 1027–1657 of the HCV polyprotein, noncovalently complexed with the full-length NS4A cofactor protein (residues 1658–1711) was used. Assays were performed in 60 μl of a buffer containing 50 mM Hepes pH 7.5, 0.15 M NaCl, 0.1% (v/v) Triton X-100, 15% (v/v) glycerol, 10 mM DTT, 2 nM NS3/NS4A complex. To this assay mix 10 μM (final concentration) of a peptide substrate corresponding to the NS5AB cleavage site and having the sequence of the NS5A-NS5B peptide, were added. Incubation times at 23° C. were adjusted to obtain <10% conversion. Reactions were stopped by the addition of 40 μl of 1% TFA. Cleavage was determined by HPLC using a Merck-Hitachi chromatograph equipped with an autosampler. 80 μl samples were injected on a Lichrospher C18 reversed phase cartridge column (4×74 mm, 5 μm, Merck) and fragments were separated using a 10–40% acetonitrile gradient at 5%/min using a flow rate of 2.5 ml/min. Peak detection was done by monitoring both the absorbance at 220 nm and tryptophan fluorescence (λex=280 nm, λem=350 nm). Cleavage products were quantitated by integration of chromatograms with respect to appropriate standards. Kinetic parameters were calculated from nonlinear least-squares fit of initial rates as a function of substrate concentration with the help of a Kaleidagraph software, assuming Michaelis-Menten kinetics.
Ki values of peptide inhibitors were calculated from substrate titration experiments performed in the presence of increasing amounts of inhibitor. Experimental data sets were simultaneously fitted to eg.1 using a multicurve fit macro with the help of a Sigmaplot software: V=(VmaxS)/(Km([…])+S); (eq.1) Alternatively, Ki values were derived from IC50 values, calculated using a four-parameter logistic function, according to eq.2: IC50=(1+S/Km)Ki (eq.2)

[3] = NS3 protease domain/NS4A cofactor peptide assay, read-out: Assay B (IC50 class)
[4] = Table 1, NS3 protease domain/Pep4AK, 4AB peptide substrate, read-out: Assay B

SMILES	IC50 [2] [µM]	IC50 [1, 4] [µM]	other results
CC(C)C[C@H](NC(=O)C1(Cc2ccsc2C(=O)O)Cc2ccccc2N1)C(=O)N[C@@H](CC(F)F)C(=O)NCCc1c(F)cc(C(=O)O)cc1F (single isomer, unassigned) [Compound 708b]	< 100		IC50 [1, 3]: < 10 µM
CC(C)C[C@H](NC(=O)C1(Cc2ccc(C(=O)O)s2)CCc2ccccc2N1)C(=O)N[C@@H](CC(F)F)C(=O)NCCc1ccc(C(=O)O)cc1Cl (single isomer, unassigned) [Compound 711b]	< 100		IC50 [1, 3]: < 10 µM
CC(C)C[C@H](NC(=O)C1(Cc2cccc(C(=O)O)c2)CCc2ccccc2N1)C(=O)N[C@@H](CC(F)F)C(=O)NCCc1ccc(C(=O)O)cc1Cl (single isomer, unassigned) [Compound 712b]	< 100		IC50 [1, 3]: < 10 µM
CC(C)CC(NC(=O)C(CCC(=O)O)NC(=O)OC(C)(C)C)C(=O)NC(CS)C(=O)NCCc1ccccc1Cl (centres unmarked) [Compound 114]	< 100	< 10	
CC(C)CC(NC(=O)C(CCC(=O)O)NC(=O)OC(C)(C)C)C(=O)NC(CC(F)F)C(=O)NCCc1ccccc1Cl (centres unmarked) [Compound 115]	< 100	< 10	
CC(C)COC(=O)NC(CCC(=O)O)C(=O)NC(CC(C)C)C(=O)NC(CS)C(=O)NCCc1cccc(C(=O)O)c1 (centres unmarked) [Compound 133]	< 100	< 10	
CC(C)COC(=O)NC(CCC(=O)O)C(=O)NC(CC(C)C)C(=O)NC(CS)C(=O)NCCc1ccc(C(=O)O)cc1 (centres unmarked) [Compound 151]	< 100	< 10	
CC(C)COC(=O)NC(CCC(=O)O)C(=O)NC(CC(C)C)C(=O)NC(CS)C(=O)NCCc1ccc(CC(=O)O)cc1 (centres unmarked) [Compound 154]	< 100	< 10	
CC(C)COC(=O)NC(CCC(=O)O)C(=O)NC(CC(C)C)C(=O)NC(CS)C(=O)NCCc1ccc(CCC(=O)O)cc1 (centres unmarked) [Compound 156]	< 100	< 10	
CC(C)COC(=O)NC(CCC(=O)O)C(=O)NC(CC(C)C)C(=O)NC(CS)C(=O)NCCc1c(Cl)cccc1Cl (centres unmarked) [Compound 164]	< 100	< 10	
COc1ccc(Br)cc1CCNC(=O)C(CS)NC(=O)C(CC(C)C)NC(=O)C(CCC(=O)O)NC(=O)OCC(C)C (centres unmarked) [Compound 173]	< 100	< 10	
COC(=O)c1ccc(CCNC(=O)[C@H](CS)NC(=O)[C@H](CC(C)C)NC(=O)[C@H](CCC(=O)O)NC(=O)OCC(C)C)c(Cl)c1 [Compound 177]	< 100	< 10	
CC(C)COC(=O)N[C@@H](CCC(=O)O)C(=O)N[C@@H](CC(C)C)C(=O)N[C@@H](CS)C(=O)NCCc1ccc(C(=O)O)cc1Cl [Compound 178]	< 10	< 1	
CC(C)COC(=O)NC(CCC(=O)O)C(=O)NC(CC(C)C)C(=O)NC(CC(F)F)C(=O)NCCc1ccc(C(=O)O)cc1Cl (centres unmarked) [Compound 180]			IC50 ([1]; Assay B, Table 1, NS3 protease domain/Pep4AK, 4AB peptide substrate): < 1 µM; IC50 ([2]; Table 1, full-length NS3/NS4A, NS5A-NS5B peptide substrate, read-out: Assay A): < 10 µM
CC(C)C[C@H](NC(=O)[C@H](CCC(=O)O)NS(=O)(=O)c1cccc2ccccc12)C(=O)N[C@@H](CS)C(=O)NCCc1ccccc1Cl [Compound 252]	< 10		IC50 ([1]; Assay B, Table 2, NS3 protease domain/Pep4AK): < 10 µM
CC(=O)N[C@@H](CC(=O)O)C(=O)N[C@@H](CCC(=O)O)C(=O)N[C@H](C(=O)N[C@@H](CCC(=O)O)C(=O)N[C@@H](CC1CCCCC1)C(=O)N[C@@H](CC(F)F)C(=O)NCCc1ccc(C(=O)O)cc1)C(c1ccccc1)c1ccccc1 [Compound 321] (Ac-DE[Dip]E[Cha][Abu(4,4-F2)]-X1)			IC50 ([1]; Assay B, Table 3, NS3 protease domain/Pep4AK): < 1 µM; IC50 ([2]; Table 3, full-length NS3/NS4A, read-out: Assay A): < 1 µM
